Measurements: the OligoGym collection
Bases are written 5' to 3'; sugars and linkages follow in the same order, as letters with counts (s phosphorothioate, o phosphodiester; PS: all linkages phosphorothioate). The collection does not say whether C is 5-methylated. l = locked nucleic acid (LNA); d = 2'-deoxy (DNA)

Target: Tau
Test: rat primary cortical neurons, FLIPR, 25 uM ASO

| Sequence | calcium oscillation score |
| --- | --- |
| ATTATCATCCATTCTGA (sugars l2 d11 l4, PS) | 45.6 % of control |
| TATCCTTTGAGCCACACTTG (sugars l3 d14 l3, PS) | 11.7 % of control |
| CTACAAACCAGTTACC (sugars l3 d9 l4, PS) | 107 % of control |
| GCCCTAAAGTCCCAG (sugars l3 d9 l3, PS) | 34.3 % of control |
| GTTTATGATGGATGTTGCCT (sugars l3 d14 l3, PS) | 3.32 % of control |
| GCAGACACCTCGTCAGCTAG (sugars l3 d14 l3, PS) | 59.6 % of control |
| CCATTTTCCATATAATTTTA (sugars l3 d14 l3, PS) | 56.3 % of control |
| ATATTGTCCAGGGACCCAAT (sugars l3 d14 l3, PS) | 19.9 % of control |
| AGGTCTGGCATGGGC (sugars l3 d9 l3, PS) | 47.6 % of control |
| AGAAATAAGTGGTAGT (sugars l4 d8 l4, PS) | 88.1 % of control |
| CTTTGGCGTTCTCGCG (sugars l3 d10 l3, PS) | 93.5 % of control |
| CCCGGAACTCTCAACTCCTC (sugars l3 d14 l3, PS) | 18.1 % of control |
| CCCAATCTTCGACTGG (sugars l3 d10 l3, PS) | 21.7 % of control |
| TACCTTTTTATTTCCTC (sugars l4 d11 l2, PS) | 41.6 % of control |
| AATCCTGTGCTTCAGG (sugars l3 d10 l3, PS) | 73 % of control |
| CCTGATCACAAACCCT (sugars l3 d10 l3, PS) | 100 % of control |
| CCCGCCTTTAGTGATTACAG (sugars l3 d14 l3, PS) | 2.38 % of control |
| CAGAGCTGGGTGGTGTCTTT (sugars l3 d14 l3, PS) | 0 % of control |
| AGTCTACCATGTCGAT (sugars l3 d10 l3, PS) | 69.1 % of control |
| TAACCAATTAACCGAA (sugars l3 d10 l3, PS) | 179 % of control |
| ATTAATTATTAAATCTTCT (sugars l4 d11 l4, PS) | 63.9 % of control |
| TCCTGTGCTTCAGGCC (sugars l3 d10 l3, PS) | 75.5 % of control |
| TTCATCACCAAGTCCCA (sugars l3 d12 l2, PS) | 66.8 % of control |
| TGAAGTCAAGCTTCTCAGAT (sugars l3 d14 l3, PS) | 0 % of control |
| TATTGTCCAGGGACCC (sugars l3 d10 l3, PS) | 29.9 % of control |
| GCGTTCTCGCGGAA (sugars l3 d8 l3, PS) | 3.83 % of control |

| Sequence | calcium oscillation score |
| --- | --- |
| GAAGTCCCGAGCCAAAGCCG (sugars l3 d14 l3, PS) | 5.18 % of control |
| TCCTAAGTCAACCACACC (sugars l2 d14 l2, PS) | 69 % of control |
| CTTAATTTCACCCTC (sugars l3 d9 l3, PS) | 122 % of control |
| CACTGTTACACATTTAT (sugars l4 d9 l4, PS) | 68 % of control |
| TAAGTGATTAACCAATTAAC (sugars l3 d14 l3, PS) | 27.2 % of control |
| AGATCATCCATTTTCTT (sugars l2 d11 l4, PS) | 55.3 % of control |
| CGGTAGGAAAGACATTTCCC (sugars l3 d14 l3, PS) | 10.1 % of control |
| TGGATATAGTTAAGGC (sugars l4 d8 l4, PS) | 117 % of control |
| ACTTTATTTCCAAATTCACTTTTAC (sugars ldllldddddddddddddddllddl, PS) | 17.7 % of control |
| ACTTATCTATCCATCTATT (sugars l3 d12 l4, PS) | 55.8 % of control |
| TTATTTCCAAATTCACTTTT (sugars l2 d16 l2, PS) | 182 % of control |
| AACCAACTTTCATCTACTTT (sugars l4 d14 l2, PS) | 63 % of control |
| CCCACAGCACTAAATTT (sugars l3 d11 l3, PS) | 83.5 % of control |
| TAATTCACACAACAAACTA (sugars l4 d11 l4, PS) | 88.7 % of control |
| CTGGCCATCTTATGCTGACC (sugars l3 d14 l3, PS) | 12.8 % of control |
| CACTCAAGAAATGGTTTGCT (sugars l3 d14 l3, PS) | 9.52 % of control |
| CTCACCCCAAACAAGAA (sugars l2 d11 l4, PS) | 45.1 % of control |
| CTAAGGCAAGGCCTAT (sugars l3 d10 l3, PS) | 83 % of control |
| TTATTTCCAAATTCACTTTT (sugars l4 d11 l5, PS) | 124 % of control |
| GTCCAGGGACCCAATCTTCG (sugars l3 d14 l3, PS) | 0 % of control |
| GACGTTGCTAAGATCC (sugars l3 d10 l3, PS) | 22.6 % of control |
| AATTTCTCTAATTGTCC (sugars l4 d9 l4, PS) | 69 % of control |
| TCTTAATTCATTTAATTCTC (sugars l4 d12 l4, PS) | 87.1 % of control |
| GACGTGGGTGATATTGTCCA (sugars l3 d14 l3, PS) | 0 % of control |
| TAACTCATCAACACCTTTTA (sugars l4 d14 l2, PS) | 82.6 % of control |
| CCCCACTTTTAATTAAAT (sugars l3 d11 l4, PS) | 95.2 % of control |

| Sequence | calcium oscillation score |
| --- | --- |
| ATCATATCCTAAGCAT (sugars l3 d9 l4, PS) | 60.1 % of control |
| ATCACTGATTTTGAAGTCCC (sugars l5 d10 l5, PS) | ≥ 200 % of control |
| CACAACCCAAGATTCC (sugars l3 d10 l3, PS) | 58.8 % of control |
| TTTTCTCAATGTAACCT (sugars l4 d9 l4, PS) | 80.5 % of control |
| TCCCAGCGTGATCTTCCATC (sugars l5 d11 l4, PS) | 85.2 % of control |
| ACCTCCTGGTTTATGATGGA (sugars l3 d14 l3, PS) | 0 % of control |
| GAATATTACACCATCC (sugars l4 d8 l4, PS) | 97 % of control |
| ACCACATTATCATCCATT (sugars l2 d12 l4, PS) | 55.7 % of control |
| TTTTTTAACTCCCAACTCTT (sugars l4 d14 l2, PS) | 98.3 % of control |
| GGTGATATTGTCCAGG (sugars l3 d10 l3, PS) | 18.5 % of control |
| CAGTCTTTATTAACACT (sugars l3 d10 l4, PS) | 50.7 % of control |
| AGAACTTCTAGTTATACAGT (sugars l3 d14 l3, PS) | 35.7 % of control |
| CATCCATTTTCTGACTCT (sugars l4 d12 l2, PS) | 42.4 % of control |
| TGAGCACTAACTCTAAGTAG (sugars l3 d14 l3, PS) | 21.4 % of control |
| TTGCAACTTTAACTCCA (sugars l4 d11 l2, PS) | 80.8 % of control |
| TCAACATTACCCTTAAATAT (sugars l4 d13 l3, PS) | 82.4 % of control |
| TGGTTAGCCCTAAAGTCCCA (sugars l3 d14 l3, PS) | 74.5 % of control |
| GGTCTGGCATGGGCA (sugars l3 d9 l3, PS) | 59 % of control |
| CCCAGCGTGATCTTCCATCA (sugars l3 d14 l3, PS) | 104 % of control |
| GGTTTGTAGACTATT (sugars l3 d9 l3, PS) | 0 % of control |
| CCTGGTGGCGTTGGCC (sugars l3 d10 l3, PS) | 32.6 % of control |
| CTCTTTGAACACCCCATC (sugars l3 d13 l2, PS) | 41.9 % of control |
| GGGACGTGGGTGATAT (sugars l3 d10 l3, PS) | 27.6 % of control |
| ATATTGAACTCACCCA (sugars l4 d9 l3, PS) | 67.3 % of control |
| TATTTCAACTCTTAGCA (sugars l4 d10 l3, PS) | 59 % of control |
| TATTTCCAAATTCACTTTTA (sugars l4 d10 l1 d2 l3, PS) | 127 % of control |
